# Legend:
# [1] = molecular target: Serine/threonine-protein kinase VRK2 (Homo sapiens) (UniProt Q86Y07); details: Compound concentration 1000.0 nM
# [2] = molecular target: LIM domain kinase 1 (Homo sapiens) (UniProt P53667); details: Compound concentration 1000.0 nM
# [3] = molecular target: Calcium/calmodulin-dependent protein kinase type 1B (Homo sapiens) (UniProt Q6P2M8); details: Compound concentration 1000.0 nM
# [4] = molecular target: Fibroblast growth factor receptor 4 (Homo sapiens) (UniProt P22455); details: Compound concentration 1000.0 nM
# [5] = molecular target: Tyrosine-protein kinase Srms (Homo sapiens) (UniProt Q9H3Y6); details: Compound concentration 1000.0 nM
# [6] = molecular target: Serine/threonine-protein kinase Nek7 (Homo sapiens) (UniProt Q8TDX7); details: Compound concentration 1000.0 nM
# [7] = molecular target: Serine/threonine-protein kinase PLK2 (Homo sapiens) (UniProt Q9NYY3); details: Compound concentration 1000.0 nM
# [8] = molecular target: Mitogen-activated protein kinase kinase kinase kinase 4 (Homo sapiens) (UniProt O95819); details: Compound concentration 1000.0 nM
# [9] = molecular target: GABA-A receptor; anion channel (Rattus norvegicus) (UniProt O09028+P15431+P18506+P18508+P19969+P20236+P23574+P23576+P28471+P28473+P30191+P62813+P63079+P63138+Q91ZM7+Q9ES14); details: Compound concentration 10.0 uM
# [10] = molecular target: Ephrin type-A receptor 2 (Homo sapiens) (UniProt P29317); details: Compound concentration 1000.0 nM
# [11] = molecular target: Serine/threonine-protein kinase SIK2 (Homo sapiens) (UniProt Q9H0K1); details: Compound concentration 1000.0 nM
# [12] = molecular target: 5'-AMP-activated protein kinase catalytic subunit alpha-1 (Homo sapiens, UniProt Q13131); details: Compound concentration 1000.0 nM
# [13] = molecular target: Phosphatidylinositol 4,5-bisphosphate 3-kinase catalytic subunit delta isoform (Homo sapiens) (UniProt O00329); details: Compound concentration 1000.0 nM
# [14] = molecular target: Calcium/calmodulin-dependent protein kinase type II subunit beta (Homo sapiens) (UniProt Q13554); details: Compound concentration 1000.0 nM
# [15] = molecular target: Serine/threonine-protein kinase 38 (Homo sapiens) (UniProt Q15208); details: Compound concentration 1000.0 nM
# [16] = molecular target: Serine/threonine-protein kinase tousled-like 2 (Homo sapiens) (UniProt Q86UE8); details: Compound concentration 1000.0 nM
# [17] = molecular target: Aurora kinase B (Homo sapiens) (UniProt Q96GD4); details: Compound concentration 1000.0 nM
# [18] = molecular target: Phosphorylase b kinase regulatory subunit alpha, liver isoform (Homo sapiens) (UniProt P46019); details: Compound concentration 1000.0 nM
# [19] = molecular target: T1, cAMP-dependent protein kinase catalytic subunit PRKX (Homo sapiens) (UniProt P51817); details: Compound concentration 1000.0 nM
# T1 sequence (whole entry): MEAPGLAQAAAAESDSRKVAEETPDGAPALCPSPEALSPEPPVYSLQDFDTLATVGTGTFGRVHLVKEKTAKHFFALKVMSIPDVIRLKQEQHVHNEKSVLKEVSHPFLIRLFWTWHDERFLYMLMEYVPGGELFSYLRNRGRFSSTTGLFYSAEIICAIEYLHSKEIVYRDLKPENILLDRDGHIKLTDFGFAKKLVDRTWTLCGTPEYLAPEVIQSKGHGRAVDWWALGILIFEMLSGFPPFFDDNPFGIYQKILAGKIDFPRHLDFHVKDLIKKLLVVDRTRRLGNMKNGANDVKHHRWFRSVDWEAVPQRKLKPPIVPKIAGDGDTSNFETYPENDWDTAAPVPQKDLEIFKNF
# [20] = tested on: ALK tyrosine kinase receptor (Homo sapiens), Q9UM73 [C1156Y]; details: Compound concentration 1000.0 nM
# [21] = molecular target: Fibroblast growth factor receptor 3 (Homo sapiens) (UniProt P22607); details: Compound concentration 1000.0 nM
# [22] = molecular target: Receptor-type tyrosine-protein kinase FLT3 (Homo sapiens) (UniProt P36888); details: Compound concentration 1000.0 nM
# [23] = molecular target: Serine/threonine-protein kinase MRCK alpha (Homo sapiens) (UniProt Q5VT25); details: Compound concentration 1000.0 nM
# [24] = tested on: Serine/threonine-protein kinase B-raf (Homo sapiens), P15056 [V600E]; details: Compound concentration 1000.0 nM
# [25] = molecular target: Misshapen-like kinase 1 (Homo sapiens) (UniProt Q8N4C8); details: Compound concentration 1000.0 nM
# [26] = molecular target: T2, Serine/threonine-protein kinase TBK1 (Homo sapiens) (UniProt Q9UHD2); details: Compound concentration 1000.0 nM
# T2 sequence (whole entry): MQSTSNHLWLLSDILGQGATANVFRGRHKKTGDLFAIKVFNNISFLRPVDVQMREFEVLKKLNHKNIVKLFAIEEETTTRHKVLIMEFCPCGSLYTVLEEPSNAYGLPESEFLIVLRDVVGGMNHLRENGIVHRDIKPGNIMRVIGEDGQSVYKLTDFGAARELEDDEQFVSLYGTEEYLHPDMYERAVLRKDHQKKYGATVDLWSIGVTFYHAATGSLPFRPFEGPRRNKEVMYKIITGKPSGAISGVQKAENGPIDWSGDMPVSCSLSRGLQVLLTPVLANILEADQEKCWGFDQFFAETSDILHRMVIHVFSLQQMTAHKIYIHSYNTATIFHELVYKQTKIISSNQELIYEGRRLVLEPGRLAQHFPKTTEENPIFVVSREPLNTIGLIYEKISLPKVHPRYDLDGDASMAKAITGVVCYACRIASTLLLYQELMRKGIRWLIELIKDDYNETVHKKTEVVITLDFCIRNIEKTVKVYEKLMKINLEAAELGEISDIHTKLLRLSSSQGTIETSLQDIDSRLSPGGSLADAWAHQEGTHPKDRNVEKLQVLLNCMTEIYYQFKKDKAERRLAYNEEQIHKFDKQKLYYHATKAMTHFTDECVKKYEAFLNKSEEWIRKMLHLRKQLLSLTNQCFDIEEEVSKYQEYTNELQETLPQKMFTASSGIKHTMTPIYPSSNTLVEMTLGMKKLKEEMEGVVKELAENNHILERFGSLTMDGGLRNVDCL
# [27] = tested on: Tyrosine-protein kinase ABL1 (Homo sapiens), P00519 [Y253F]; details: Compound concentration 1000.0 nM
# [28] = molecular target: Mitogen-activated protein kinase kinase kinase kinase 1 (Homo sapiens) (UniProt Q92918); details: Compound concentration 1000.0 nM
# Rattus norvegicus = species: Rattus norvegicus; details: Compound concentration 10.0 uM
# Serine/threonine-protein kinase tousled-like 2 (Homo sapiens), sequence (Q86UE8 whole entry, looked up): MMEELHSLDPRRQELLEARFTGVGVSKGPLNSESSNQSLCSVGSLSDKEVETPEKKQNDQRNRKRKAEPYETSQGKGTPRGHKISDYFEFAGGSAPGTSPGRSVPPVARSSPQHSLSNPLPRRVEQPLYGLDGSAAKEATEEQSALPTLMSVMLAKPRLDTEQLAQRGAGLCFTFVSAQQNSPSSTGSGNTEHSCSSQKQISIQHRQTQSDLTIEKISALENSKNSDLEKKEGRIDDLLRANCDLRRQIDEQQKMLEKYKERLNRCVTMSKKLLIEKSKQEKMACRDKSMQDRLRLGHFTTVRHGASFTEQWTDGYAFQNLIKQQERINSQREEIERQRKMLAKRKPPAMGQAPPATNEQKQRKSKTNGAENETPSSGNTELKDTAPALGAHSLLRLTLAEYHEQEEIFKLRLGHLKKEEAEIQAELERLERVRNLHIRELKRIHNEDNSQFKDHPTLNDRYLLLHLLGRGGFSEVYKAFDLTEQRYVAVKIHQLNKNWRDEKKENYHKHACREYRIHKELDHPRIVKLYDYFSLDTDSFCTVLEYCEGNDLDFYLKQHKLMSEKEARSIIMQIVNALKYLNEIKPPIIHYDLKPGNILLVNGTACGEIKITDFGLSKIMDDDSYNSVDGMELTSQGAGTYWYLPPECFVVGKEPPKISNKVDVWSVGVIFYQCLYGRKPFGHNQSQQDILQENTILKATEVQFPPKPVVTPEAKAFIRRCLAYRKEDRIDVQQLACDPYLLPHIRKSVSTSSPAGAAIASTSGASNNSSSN
# Fibroblast growth factor receptor 4 (Homo sapiens), sequence (P22455 22-802 limits assumed): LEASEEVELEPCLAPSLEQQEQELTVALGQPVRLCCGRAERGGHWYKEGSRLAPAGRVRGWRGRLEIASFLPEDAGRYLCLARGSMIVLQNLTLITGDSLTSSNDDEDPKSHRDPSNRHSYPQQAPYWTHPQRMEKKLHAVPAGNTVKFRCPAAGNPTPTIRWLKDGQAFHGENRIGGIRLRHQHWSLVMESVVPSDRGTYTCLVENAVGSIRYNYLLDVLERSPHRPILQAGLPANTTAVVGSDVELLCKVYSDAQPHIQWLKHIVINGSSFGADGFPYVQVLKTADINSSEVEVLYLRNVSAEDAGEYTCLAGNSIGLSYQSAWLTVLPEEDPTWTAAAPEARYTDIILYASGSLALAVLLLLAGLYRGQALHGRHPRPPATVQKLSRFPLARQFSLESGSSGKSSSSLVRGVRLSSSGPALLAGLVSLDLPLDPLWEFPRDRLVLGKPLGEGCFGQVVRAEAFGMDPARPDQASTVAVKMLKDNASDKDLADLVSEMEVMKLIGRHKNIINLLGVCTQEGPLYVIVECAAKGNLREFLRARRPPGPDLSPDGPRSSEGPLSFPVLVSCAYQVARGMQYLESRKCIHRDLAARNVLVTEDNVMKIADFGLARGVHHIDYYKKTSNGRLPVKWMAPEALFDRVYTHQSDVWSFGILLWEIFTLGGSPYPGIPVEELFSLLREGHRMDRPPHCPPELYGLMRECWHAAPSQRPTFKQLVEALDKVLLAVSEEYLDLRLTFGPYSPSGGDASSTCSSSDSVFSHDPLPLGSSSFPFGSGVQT
# ALK tyrosine kinase receptor (Homo sapiens), Q9UM73 [C1156Y], sequence (Q9UM73 whole entry C1156Y, looked up): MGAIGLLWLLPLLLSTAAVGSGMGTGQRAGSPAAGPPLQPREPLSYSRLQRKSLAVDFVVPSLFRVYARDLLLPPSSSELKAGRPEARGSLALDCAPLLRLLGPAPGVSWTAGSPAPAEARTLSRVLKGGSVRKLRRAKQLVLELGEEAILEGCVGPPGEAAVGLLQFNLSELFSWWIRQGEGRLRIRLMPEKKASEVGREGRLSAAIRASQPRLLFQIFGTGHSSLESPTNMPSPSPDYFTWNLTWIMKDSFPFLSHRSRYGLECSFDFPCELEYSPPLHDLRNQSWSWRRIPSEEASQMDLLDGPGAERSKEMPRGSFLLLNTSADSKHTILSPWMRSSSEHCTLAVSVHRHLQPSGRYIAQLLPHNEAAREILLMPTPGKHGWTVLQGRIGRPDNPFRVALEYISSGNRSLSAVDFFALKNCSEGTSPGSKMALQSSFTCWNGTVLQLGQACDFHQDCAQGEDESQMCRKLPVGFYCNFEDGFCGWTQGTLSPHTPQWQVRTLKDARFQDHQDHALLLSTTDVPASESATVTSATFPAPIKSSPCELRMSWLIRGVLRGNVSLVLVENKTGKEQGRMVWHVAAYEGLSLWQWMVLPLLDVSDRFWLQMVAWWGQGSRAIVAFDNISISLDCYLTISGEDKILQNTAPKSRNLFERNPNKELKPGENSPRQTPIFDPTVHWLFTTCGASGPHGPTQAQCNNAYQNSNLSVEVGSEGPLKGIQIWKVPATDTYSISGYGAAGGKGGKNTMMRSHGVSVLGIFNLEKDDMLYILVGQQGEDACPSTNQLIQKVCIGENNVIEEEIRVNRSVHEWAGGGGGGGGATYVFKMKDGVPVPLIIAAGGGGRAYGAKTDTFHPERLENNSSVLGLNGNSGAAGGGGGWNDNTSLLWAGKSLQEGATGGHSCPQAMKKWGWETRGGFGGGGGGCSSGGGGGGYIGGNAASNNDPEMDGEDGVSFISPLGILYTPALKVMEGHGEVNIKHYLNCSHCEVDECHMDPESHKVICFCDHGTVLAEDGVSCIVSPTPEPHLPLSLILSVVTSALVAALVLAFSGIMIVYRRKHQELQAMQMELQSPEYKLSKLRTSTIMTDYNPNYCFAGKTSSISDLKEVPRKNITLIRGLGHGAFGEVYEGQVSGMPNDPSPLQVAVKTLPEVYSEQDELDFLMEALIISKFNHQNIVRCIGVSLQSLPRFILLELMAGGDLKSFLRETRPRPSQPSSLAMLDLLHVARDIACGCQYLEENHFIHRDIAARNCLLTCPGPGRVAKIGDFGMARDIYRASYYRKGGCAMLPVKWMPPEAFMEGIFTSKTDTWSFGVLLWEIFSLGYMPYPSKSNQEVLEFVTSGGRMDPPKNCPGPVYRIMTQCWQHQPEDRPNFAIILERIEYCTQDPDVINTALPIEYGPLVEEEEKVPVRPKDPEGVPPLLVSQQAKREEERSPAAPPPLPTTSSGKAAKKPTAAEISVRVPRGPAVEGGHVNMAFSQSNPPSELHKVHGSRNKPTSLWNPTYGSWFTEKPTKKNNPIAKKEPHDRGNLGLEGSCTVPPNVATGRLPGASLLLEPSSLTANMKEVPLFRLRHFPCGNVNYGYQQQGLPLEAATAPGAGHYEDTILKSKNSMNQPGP
# Serine/threonine-protein kinase 38 (Homo sapiens), sequence (Q15208 2-465 limits assumed): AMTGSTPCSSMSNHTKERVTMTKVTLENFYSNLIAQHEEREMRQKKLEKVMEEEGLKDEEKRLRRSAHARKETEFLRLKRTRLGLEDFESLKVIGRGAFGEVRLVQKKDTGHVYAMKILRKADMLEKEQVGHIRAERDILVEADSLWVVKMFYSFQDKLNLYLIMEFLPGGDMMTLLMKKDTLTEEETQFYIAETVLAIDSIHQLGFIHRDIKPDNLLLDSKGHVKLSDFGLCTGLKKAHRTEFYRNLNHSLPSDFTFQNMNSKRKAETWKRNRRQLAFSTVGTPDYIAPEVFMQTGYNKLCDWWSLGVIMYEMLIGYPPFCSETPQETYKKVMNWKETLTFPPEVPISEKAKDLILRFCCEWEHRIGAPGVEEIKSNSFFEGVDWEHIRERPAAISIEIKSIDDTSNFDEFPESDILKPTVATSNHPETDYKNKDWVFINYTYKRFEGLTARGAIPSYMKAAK
# Tyrosine-protein kinase Srms (Homo sapiens), sequence (Q9H3Y6 whole entry): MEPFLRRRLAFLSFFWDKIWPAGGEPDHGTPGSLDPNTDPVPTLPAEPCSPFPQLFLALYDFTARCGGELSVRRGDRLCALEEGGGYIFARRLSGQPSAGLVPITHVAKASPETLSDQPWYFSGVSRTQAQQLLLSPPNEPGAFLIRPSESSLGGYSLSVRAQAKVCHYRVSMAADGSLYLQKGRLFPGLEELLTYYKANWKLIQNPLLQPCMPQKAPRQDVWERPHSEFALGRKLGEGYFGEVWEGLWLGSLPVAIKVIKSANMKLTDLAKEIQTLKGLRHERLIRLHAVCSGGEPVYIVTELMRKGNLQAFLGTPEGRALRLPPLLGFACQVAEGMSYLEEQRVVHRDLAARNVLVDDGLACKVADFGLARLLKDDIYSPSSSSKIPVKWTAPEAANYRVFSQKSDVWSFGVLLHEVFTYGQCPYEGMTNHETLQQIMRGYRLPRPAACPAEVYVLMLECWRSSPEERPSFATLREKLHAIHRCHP
# Serine/threonine-protein kinase PLK2 (Homo sapiens), sequence (Q9NYY3 whole entry, looked up): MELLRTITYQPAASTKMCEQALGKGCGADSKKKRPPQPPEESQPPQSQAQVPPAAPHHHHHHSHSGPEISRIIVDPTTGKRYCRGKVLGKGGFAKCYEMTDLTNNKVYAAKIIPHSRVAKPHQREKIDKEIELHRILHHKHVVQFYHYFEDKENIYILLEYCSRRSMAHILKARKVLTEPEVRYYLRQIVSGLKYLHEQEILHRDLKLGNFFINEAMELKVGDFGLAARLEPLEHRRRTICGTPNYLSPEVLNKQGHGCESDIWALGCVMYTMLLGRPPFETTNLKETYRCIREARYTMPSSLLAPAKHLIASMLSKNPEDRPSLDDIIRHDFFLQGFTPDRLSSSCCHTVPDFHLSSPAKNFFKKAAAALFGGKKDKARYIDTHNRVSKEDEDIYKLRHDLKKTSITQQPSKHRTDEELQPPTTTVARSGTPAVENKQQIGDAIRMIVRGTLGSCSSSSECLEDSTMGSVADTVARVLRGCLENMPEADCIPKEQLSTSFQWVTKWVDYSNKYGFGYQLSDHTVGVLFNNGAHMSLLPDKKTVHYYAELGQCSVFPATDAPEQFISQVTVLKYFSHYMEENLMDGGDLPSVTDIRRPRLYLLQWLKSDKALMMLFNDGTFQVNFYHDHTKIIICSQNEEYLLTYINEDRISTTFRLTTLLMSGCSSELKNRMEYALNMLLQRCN
Structure (SMILES),residual activity [1],residual activity [2],residual activity [3],residual activity [4],residual activity [5],residual activity [6],residual activity [7],residual activity [8],inhibition [9],residual activity [10],residual activity [11],residual activity [12],residual activity [13],residual activity [14],residual activity [15],residual activity [16],residual activity [17],residual activity [18],residual activity [19],residual activity [20],other results
CC1=C(C#N)C(c2ccc3c(c2)c(NC(=O)c2ccccc2C)nn3C)C(C#N)=C(C)N1 [BAY-974],72%,94%,85%,100%,57%,96%,74%,100%,-0.8%,82%,93%,77%,71%,86%,96%,100%,66%,89%,76%,96%,residual activity [21]: 94%; residual activity [22]: 96%; residual activity [23]: 100%; residual activity [24]: 62%; residual activity [25]: 96%; residual activity [26]: 69%; residual activity [27]: 82%; residual activity [28]: 81%; inhibition (Rattus norvegicus): 96.3%
CCc1ccccc1C(=O)Nc1n[nH]c2c(C)c(F)c(C3C(C#N)=C(C)N(C)C(C)=C3C#N)cc12 [BAY-3827],100%,100%,100%,100%,94%,83%,97%,100%,-7.98%,61%,69%,7.5%,90%,73%,100%,100%,88%,81%,88%,100%,residual activity [21]: 93%; residual activity [22]: 88%; residual activity [23]: 100%; residual activity [24]: 100%; residual activity [25]: 99%; residual activity [26]: 77%; residual activity [27]: 85%; residual activity [28]: 73%; inhibition (Rattus norvegicus): 85.6%

# — ChEMBL document CHEMBL4507319 (2021)
